The values that follow come from patent US8138191B2, “Inhibitor compounds and cancer treatment methods” (Critical Outcome Technologies Inc., priority 2007, dated 2012).

Read-outs that look alike come from different tables or passages of the source.

In data set [1] the test system is U87. The experiment in a line: IC50 human glioma/astrocytoma cell lines (alamar Blue), U87. To be noted: Homo sapiens, U-87 MG. In general terms: Resazurin is reduced to fluorescent resorufin, in cell work by metabolically active cells.
Method: Cell lines were obtained from the Human Tissue Culture Collection (ATCC), grown and maintained under ATCC-specified conditions, and tested to ensure viability and lack of contaminating mycoplasma and common viruses. […] A viability stain (alamar Blue) was added to cells after 4-7 days of drug exposure (approximately 4 doublings of control cells; maximum cell density in wells approximately 80%), and assayed for total cellular metabolic activity (a function of population density of live cells) by absorbance.
In data set [2] the test system is SHP77. The experiment in a line: Resistance testing over 5 generations, SHP77. Format: cell-based, human. Particulars: SHP77, 5 generations. How it is done: In order to evaluate the induction of resistance in vitro, compounds according to the invention were tested in head to head comparisons against conventional therapeutic agents Cisplatin® and Taxotere®. The compound designated COTI-4 (which is the subject of Applicant's co-pending U.S. provisional patent application entitled “Composition and Method for Treatment” filed Dec. 26, 2007) was also tested. The structure for COTI-4 is:
IC50 values were obtained using methods known to persons skilled in the art with two different human SCLC cell lines (DMS153 and SHP77) obtained from the National Cancer Institute. […] The procedure was repeated for a total of 5 generations. Emerging resistance was identified by increasing IC50 values in successive generations.

Data set [3] has as its system HCT-116. The experiment in a line: CellTiter-Blue growth inhibition, single agents and combinations, HCT-116. Format: cell-based. Particulars: Homo sapiens, read-out: Mean IC50, single agent. As to the method:
(§1) The stock concentration was further diluted to 1 mM and added to a drug plate. […] Following dilution, 2 μl of test agent was transferred to the corresponding wells of a cell-containing 96-well plate with 198 μl of growth media. Tarceva® (erlotinib) was supplied by LC Labs (Woburn, Mass.).
(§2) Cells were grown to 70% confluency, trypsinized, counted, and seeded in 96-well flat-bottom plates at a final concentration of 2.5×10^3−5×10^3 cells/well (Day 0). […] Viable cell numbers were quantified by the CellTiter-Blue® cell viability assay, which measures the conversion of the indicator dye (resazurin) to resorufin, an indicator of cell viability. Experiments were repeated at least twice with the same concentrations to determine growth inhibitory activity.
(§3) The CI, a numerical value calculated as described in equation A, also provides a quantitative measure of the extent of drug interaction. A CI of less than, equal to, and more than 1 indicates synergy, additivity, and antagonism, respectively. CI=(CAx/ICx,A)+(CB,x/ICx,B) Equation A: Where CA,x and CB,x, are the concentrations of drug A and drug B used in combination to achieve x % drug effect. ICx,A and ICx,B are the concentrations for single agents to achieve the same effect.

For data set [4], the system named is HL60. The experiment in a line: in vitro IC50 against cancer cell lines, HL60. Format: cell-based. Particulars: Homo sapiens, HL-60, 72 h; HL60, Leukemia, 3 days. How it is done: (§4) Briefly, cells were plated in plastic tissue culture plates and grown under standard conditions for each cell line, in carbon dioxide/oxygen atmosphere in plastic tissue culture plates, in the presence of COTI-2 or COTI-219 compounds at 35° C. for 3 days. Control cultures were treated with vehicle minus compound. Cells were counted after 3 days in culture and at a cell density of no more than 80%. The following cell lines, obtained from the National Cancer Institute, were tested: human SCLC cell lines DMS153, DMS114, SHP77; human NSCLC cell lines H226, A460, A560; human breast cancer cell lines T47D, MCF7; human colon cancer cell line HT29; and, human Leukemia cell lines K562, HL60.

Data set [5] concerns H292. The experiment in a line: CellTiter-Blue growth inhibition, single agents and combinations, H292. To be noted: Homo sapiens, read-out: Mean IC50, single agent. Format: cell-based. How it is done:
as §1
Viable cell numbers were quantified by the CellTiter-Blue® cell viability assay, which measures the conversion of the indicator dye (resazurin) to resorufin, an indicator of cell viability. Experiments were repeated at least twice with the same concentrations to determine growth inhibitory activity.
as §3

The subject of data set [6] is HT-29. The data set is described as follows: CellTiter-Blue growth inhibition, single agents and combinations, HT-29. Format: cell-based. To be noted: Homo sapiens, read-out: Mean IC50, single agent. How it is done:
as §1, §2, §3

In data set [7] the test system is HCT-15. The data set is described as follows: Tumor cell proliferation, single agents and combinations, HCT-15. The data set is classed as cell-based. Particulars: Homo sapiens. How it is done:
(§5) The 3 cell lines were treated as follows:
(§6) Day 1: Cells were plated in 96-well flat bottom plates (VWR, Mississauga, ON, Canada) and allowed to adhere overnight.
(§7) All treated and control cells were, therefore, exposed to a 1% DMSO concentration plus the desired concentration of COTI-2.
as §3

Data set [8] deals with MCF7. The experiment in a line: in vitro IC50 against cancer cell lines, MCF7. Format: cell-based. To be noted: Homo sapiens, 72 h; MCF7, Breast Cancer, 3 days. How it is done:
as §4

Data set [9] is described as follows: Half-life and liver clearance rate by human liver microsomes (HLM) at 0.5 mg/mL. To be noted: liver microsomes. Format: in vitro ADME. How it is done: Sampling was conducted at 1, 20, 40, 60, 120,180 and 240 minutes and the remaining concentration of each compound was evaluated. A half life (T1/2) was calculated at each concentration, along with the rate of clearance by the liver (CL). The CL values compare favorably with published values for other marketed therapeutic agents under identical conditions. The half life of compounds according to the invention is therefore likely to be long enough to permit convenient dosing, while not being so long as to lead to accumulation in patients with potential long term toxicity effects.
The incubation mixture (500 μl) consisted of 100 μl of COTI-2, 150 μl of liver microsomal fractions (1.67 mg/ml rat/human) 35.5 μl of 100 mM phosphate buffer and 214.5 μl co-factor (NADPH, UDPGA, and MgCl2). The COTI-2 compound mixture and co-factor were pre-warmed at 37° C. for 5 min, with shaking at 150 rpm. The reaction was started by adding co-factor to the test compound mixture. The final concentration of the incubation mixture was as follows:
Blank incubation was performed with the co-factors. The sampling time points included 0 and 240 min for the blank sample, and 0, 20, 40, 60, 120, 180, and 240 min for COTI-2. At each time point 50 μl of sample was added to 150 μl of methanol to stop the reaction. The sample plates were centrifuged at 4200 rpm for 15 min and the supernatant was injected into LC-MS/MS for analysis. The percent compound remaining, rate of elimination (Kel), half-life (T1/2), and intrinsic clearance (CL) using standard calculations.
Background: Microsomes from liver hold many membrane-bound enzymes, among them those of drug oxidation.

Data set [10] deals with K562. The data set is described as follows: in vitro IC50 against cancer cell lines, K562. Format: cell-based. Particulars: Homo sapiens, 72 h; K562, Leukemia, 3 days. As to the method:
as §4

In data set [11] the test system is COLO-205. The experiment in a line: Tumor cell proliferation, single agents and combinations, COLO-205. The data set is classed as cell-based, human. To be noted: Homo sapiens. As to the method: as §5, §6, §7, §3
Data set [12] concerns DMS114 and SHP-77 human small cell lung cancer lines. The data set is described as follows: Actual outcome of in vitro testing in both reference human SCLC lines. The data set is classed as cell-based. As to the method: as §4
[13] abbreviates: 10 μmol, read-out: In vitro T½ (converted).
Setting [14] is: 100 μmol, read-out: In vitro T½ (converted).
Setting [15] is: average over 1, 10 and 100 μM, read-out: average half life (converted).
The mark [16] stands for this setting: value before brackets, from 3 in vitro experiments, read-out: In vitro T½.

`CN1CCN(C(=S)NN=C2c3ncccc3-c3cccnc32)CC1` [COTI-219]: the IC50 (as a rule, the point on the concentration scale where inhibition reaches its midpoint) came to 2370 nM in [1]; 8.7 nM in data set [3] (HCT-116, Colon, KRAS - MUT, 72 h); 374 nM in data set [4]; 20 nM in data set [5] (NCI-H292, H292, NSCLC, EGFR - WT, 72 h); 7.4 nM in data set [6] (HT-29, Colon, KRAS - WT, 72 h); 5.1 nM in data set [7] (HCT-15, Colon, KRAS - MUT, read-out: Mean IC50, single agent). For the same molecule, the IC50 in data set [8] was 421 nM; in data set [10], 222 nM; in [11] (COLO-205, Colon, KRAS - WT, read-out: Mean IC50, single agent), 4.3 nM. Besides, in data set [2], the “emerging resistance: ratio of IC50 to IC50 of parental generation” value was “little to no emerging resistance”. The microsomal CLint (commonly the rate of metabolic loss divided by the concentration) at 1 µM in [9] (1 μM) was determined as 4.2 µL/min/mg. The half-life at 1 µM in [9] (1 μM, read-out: T1/2) was found to be 5.02 h; in [9] (1 μmol, read-out: In vitro T½) it was 5 h. In data set [9] (10 μM), this molecule had a microsomal CLint at 10 µM of 3 µL/min/mg. In addition, the half-life at 10 µM was 7.01 h in data set [9] (10 μM, read-out: T1/2) and 7 h in data set [9] (setting [13]). The molecule also returned a microsomal CLint at 100 µM in [9] (100 μM) of 2.5 µL/min/mg. The half-life at 100 µM in data set [9] (100 μM, read-out: T1/2) was 8.47 h; in [9] (setting [14]) it was 8.5 h. Moreover, the half-life in [9] (setting [15]) is 6.8 h; in [9] (setting [16]), around 6.8 h. Besides, the “Actual outcome of in vitro testing” value in data set [12] is on record as “Active”.
For the molecule `S=C(N/N=C1/CCCc2cccnc21)N1CCN(c2ccccn2)CC1` [COTI-2], the IC50 in data set [1] stood at 48 nM; in data set [3] (HCT-116, 72 h), 3.6 nM; in data set [4] it was 236 nM; in data set [5] (NCI-H292, 72 h), 3.9 nM; in data set [6] (HT-29, 72 h), 200 nM; in data set [7] (HCT-15, read-out: Mean IC50, single agent), 8.3 nM. The IC50 turned out to be 101 nM in data set [8]; 176 nM in [10]; 4.7 nM in data set [11] (COLO 205, read-out: Mean IC50, single agent). In addition, the “emerging resistance: ratio of IC50 to IC50 of parental generation” value in data set [2] is reported as “less than 1”. Also, the microsomal CLint at 1 µM in [9] (1 μM) is 12 µL/min/mg. In addition, the half-life at 1 µM in data set [9] (1 μM, read-out: T1/2) was found to be 1.7 h; in [9] (1 μmol, read-out: In vitro T½) it was 1.7 h. The molecule also yielded a microsomal CLint at 10 µM in data set [9] (10 μM) of 4 µL/min/mg. The half-life at 10 µM was 4.76 h in data set [9] (10 μM, read-out: T1/2) and 4.8 h in data set [9] (setting [13]). Further, the microsomal CLint at 100 µM in data set [9] (100 μM) came to 2 µL/min/mg. The half-life at 100 µM in [9] (100 μM, read-out: T1/2) is 11.4 h; in data set [9] (setting [14]), 11.4 h. For the same molecule, the half-life was 6 h in data set [9] (setting [15]) and around 6 h in data set [9] (setting [16]). In addition, the “Actual outcome of in vitro testing” value in data set [12] is reported as “Active”.
